Legend:
Type in all cases: cell-based
NCI-H460 = assay: Cell proliferation assay (WST-1 and/or Alamar Blue), NCI-H460; conditions: Homo sapiens; NCI-H460, large cell lung carcinoma; 72 hours incubation
Protocol: (§1) Compounds of the present invention were assayed for activity using a WST-1 cell proliferation assay and/or an Alamar Blue-based assay.
(§2) The WST-1 cell proliferation assay employed was obtained from Chemicon International, Inc. of Temecula, Calif. Further information on assay materials and procedure is provided at www.chemicon.com. The WST-1 cell proliferation assay relies on the formation of a formazan from a tetrazolium salt by cellular enzymes, whereby the amount of the obtained formazan dye as an indicator of viability is directly proportional to the number of metabolically active cells in culture.
(§3) Following 72 hours incubation of the respective cells in 50 μL/well with test compound, 10 μL of WST-1 reagent was added to each well and its contents briefly mixed. The cells were then incubated for 2 hours before absorbance of the dye was measured at 450 nm using a commercial UV/VIS microplate reader (Molecular Devices).
(§4) The Alamar Blue assay employed the CellTiter-Blue™ Cell Viability Assay from Promega Corporation of Madison, Wis. Further information on assay materials and procedure is provided at www.promega.com. The Alamar Blue-based CellTiter-Blue assay indicates cell viability by measuring the ability of cells in culture to reduce resazurin to resorufin, whereby the intensity of the fluorescence signal is directly proportional to the number of live cells. […]

DAOY = assay: Cell proliferation assay (WST-1 and/or Alamar Blue), DAOY; conditions: Homo sapiens, cerebellar medulloblastoma, 72 hours incubation
Protocol: as §1, §2, §3, §4

HCT-116 = assay: Cell proliferation assay (WST-1 and/or Alamar Blue), HCT-116; conditions: Homo sapiens; HCT-116, colorectal carcinoma; 72 hours incubation
Protocol: as §1, §2, §3, §4

MCF-7 = assay: Cell proliferation assay (WST-1 and/or Alamar Blue), MCF-7; conditions: Homo sapiens, MCF7; MCF-7, epithelial mammary adenocarcinoma; 72 hours incubation
Protocol: as §1, §2, §3, §4

MiaPACA-2 = assay: Cell proliferation assay (WST-1 and/or Alamar Blue), MiaPACA-2; conditions: Homo sapiens, MIA PaCa-2; MiaPACA-2, pancreas carcinoma; 72 hours incubation
Protocol: as §1, §2, §3, §4

C1 = assay: Cell proliferation assay (WST-1 and/or Alamar Blue), C1; conditions: C1, human B-cell derived acute lymphoblastic leukemia; 72 hours incubation
Protocol: as §1, §2, §3, §4

786-0 = assay: Cell proliferation assay (WST-1 and/or Alamar Blue), 786-0; conditions: Homo sapiens; 786-0, renal cell adenocarcinoma; 72 hours incubation
Protocol: as §1, §2, §3, §4

OCI-AML2 = assay: Cell proliferation assay (WST-1 and/or Alamar Blue), OCI-AML2; conditions: OCI-AML2, human acute myeloid leukemia; 72 hours incubation
Protocol: as §1, §2, §3, §4

MOLT-4 = assay: Cell proliferation assay (WST-1 and/or Alamar Blue), MOLT-4; conditions: MOLT-4, human T-cell derived lymphoblastic leukemia; 72 hours incubation
Protocol: as §1, §2, §3, §4

MDA-MB453 = assay: Cell proliferation assay (WST-1 and/or Alamar Blue), MDA-MB453; conditions: Homo sapiens, MDA-MB-453; MDA-MB453, metastatic breast carcinoma; 72 hours incubation
Protocol: as §1, §2, §3, §4

DU145 = assay: Cell proliferation assay (WST-1 and/or Alamar Blue), DU145; conditions: Homo sapiens, DU-145; DU145, prostate carcinoma; 72 hours incubation
Protocol: as §1, §2, §3, §4

ACHN = assay: Cell proliferation assay (WST-1 and/or Alamar Blue), ACHN; conditions: Homo sapiens, renal cell adenocarcinoma, 72 hours incubation
Protocol: as §1, §2, §3, §4

MOLM-13 = assay: Cell proliferation assay (WST-1 and/or Alamar Blue), MOLM-13; conditions: MOLM-13, human acute myeloid leukemia; 72 hours incubation
Protocol: as §1, §2, §3, §4

SK-MEL-5 = assay: Cell proliferation assay (WST-1 and/or Alamar Blue), SK-MEL-5; conditions: Homo sapiens; SK-MEL-5, malignant melanoma; 72 hours incubation
Protocol: as §1, §2, §3, §4

PANC-1 = assay: Cell proliferation assay (WST-1 and/or Alamar Blue), PANC-1; conditions: Homo sapiens; PANC-1, pancreas duct epithelial carcinoma; 72 hours incubation
Protocol: as §1, §2, §3, §4

SKOV-3 = assay: Cell proliferation assay (WST-1 and/or Alamar Blue), SKOV-3; conditions: Homo sapiens, SK-OV-3; SKOV-3, ovarian adenocarcinoma; 72 hours incubation
Protocol: as §1, §2, §3, §4

KASUMI-1 = assay: Cell proliferation assay (WST-1 and/or Alamar Blue), KASUMI-1; conditions: KASUMI-1, human acute myeloid leukemia; 72 hours incubation
Protocol: as §1, §2, §3, §4

SKM-1 = assay: Cell proliferation assay (WST-1 and/or Alamar Blue), SKM-1; conditions: SKM-1, human acute myeloid leukemia; 72 hours incubation
Protocol: as §1, §2, §3, §4

SUP-B15 = assay: Cell proliferation assay (WST-1 and/or Alamar Blue), SUP-B15; conditions: SUP-B15, human B-cell derived acute lymphoblastic leukemia; 72 hours incubation
Protocol: as §1, §2, §3, §4

PEER = assay: Cell proliferation assay (WST-1 and/or Alamar Blue), PEER; conditions: human T-cell derived lymphoblastic leukemia, 72 hours incubation
Protocol: as §1, §2, §3, §4

OVCAR-5 = assay: Cell proliferation assay (WST-1 and/or Alamar Blue), OVCAR-5; conditions: Homo sapiens; OVCAR-5, ovarian carcinoma; 72 hours incubation
Protocol: as §1, §2, §3, §4

PC3 = assay: Cell proliferation assay (WST-1 and/or Alamar Blue), PC3; conditions: Homo sapiens, PC-3; PC3, prostate adenocarcinoma; 72 hours incubation
Protocol: as §1, §2, §3, §4

CCRF-CEM = assay: Cell proliferation assay (WST-1 and/or Alamar Blue), CCRF-CEM; conditions: human T-cell derived lymphoblastic leukemia, 72 hours incubation
Protocol: as §1, §2, §3, §4

RS4-11 = assay: Cell proliferation assay (WST-1 and/or Alamar Blue), RS4-11; conditions: RS4-11, human B-cell derived acute lymphoblastic leukemia; 72 hours incubation
Protocol: as §1, §2, §3, §4

MV4-11 = assay: Cell proliferation assay (WST-1 and/or Alamar Blue), MV4-11; conditions: MV4-11, human acute myelo-monocytic leukemia; 72 hours incubation
Protocol: as §1, §2, §3, §4

A549 = assay: Cell proliferation assay (WST-1 and/or Alamar Blue), A549; conditions: Homo sapiens; A549, lung carcinoma; 72 hours incubation
Protocol: as §1, §2, §3, §4

Work on `CC(C)C(=O)Nc1cccc(C(=O)Nc2nnc(CCc3ccccc3)s2)c1` [Compound A] yielded an IC50 (NCI-H460) of 2.32 µM, an IC50 (DAOY) of 2.7 µM and an IC50 (HCT-116) of 17.3 µM. For the same compound, the IC50 (MCF-7) was greater than 20 µM, the IC50 (MiaPACA-2) was 3.36 µM and the IC50 (C1) was 0.57 µM. It also gave an IC50 (786-0) of 4.34 µM, an IC50 (OCI-AML2) of 0.35 µM and an IC50 (MOLT-4) of 0.34 µM. It also gave an IC50 (MDA-MB453) of 1.71 µM, an IC50 (DU145) of 6.14 µM and an IC50 (ACHN) of 5 µM. For the same compound, the IC50 (MOLM-13) was 0.83 µM, the IC50 (SK-MEL-5) was 2.39 µM and the IC50 (PANC-1) was greater than 20 µM. It also gave an IC50 (SKOV-3) of 3.5 µM, an IC50 (KASUMI-1) of no less than 20 µM and an IC50 (SKM-1) of 0.6 µM. The IC50 (SUP-B15) was 4.82 µM, the IC50 (PEER) was greater than 20 µM and the IC50 (OVCAR-5) was 6.65 µM. The IC50 (PC3) was 2.35 µM, the IC50 (CCRF-CEM) was 0.97 µM and the IC50 (RS4-11) was 0.13 µM. The IC50 (MV4-11) was 0.93 µM and the IC50 (A549) was 19.1 µM.

— patent US20070213378A1, “Compounds for modulating cell proliferation, compositions and methods related thereto” (LymphoSign Inc., priority 2006, published 2007)
